What was measured:
Assay in all cases: relative viability (nuclei count vs DMSO), 5 days (fraction); higher = more cells survive
[1] = compound: C1/C(=C\C2=CC=CS2)/C(=O)/C(=C/C3=CC=CS3)/C1 + CC(C)C[C@H](NC(=O)[C@H](Cc1ccccc1)NC(=O)c1cnccn1)B(O)O [Bortezomib] (partner 0.002 µM)
In short: (§1)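 Five library-drug doses in √10 steps were combined with a fixed anchor-drug dose, or a single drug was given alone, by pin tool to lung cancer cell lines in 1536-well plates the day after seeding. Nuclei were stained and counted after 5 days. Relative viability is the nuclei count in treated wells over that in vehicle wells, taken as the median of duplicate plates.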

[2] = compound: C1/C(=C\C2=CC=CS2)/C(=O)/C(=C/C3=CC=CS3)/C1 + C[C@@H](Oc1cc(-c2cnn(C3CCNCC3)c2)cnc1N)c1c(Cl)ccc(F)c1Cl [Crizotinib] (partner 1 µM)
In short: as §1

TPCA-1 + Decitabine = compound: C1=CC(=CC=C1C2=CC(=C(S2)NC(=O)N)C(=O)N)F [TPCA-1] + Nc1ncn([C@H]2C[C@H](O)[C@@H](CO)O2)c(=O)n1 [Decitabine] (partner 2 µM)
In short: as §1

[3] = compound: C[C@]12O[C@H](C[C@]1(O)CO)n1c3ccccc3c3c4c(c5c6ccccc6n2c5c31)CNC4=O [Lestaurtinib] + CCNC(=O)c1noc(-c2cc(C(C)C)c(O)cc2O)c1-c1ccc(CN2CCOCC2)cc1 [Luminespib] (partner 0.01 µM)
In short: as §1

Cell Line	relative viability ([1]; first compound 0.2 µM)	relative viability ([1]; first compound 0.6325 µM)	relative viability ([1]; first compound 2 µM)	relative viability ([1]; first compound 6.325 µM)	relative viability ([1]; first compound 20 µM)	relative viability ([2]; first compound 0.2 µM)	relative viability ([2]; first compound 0.6325 µM)	relative viability ([2]; first compound 2 µM)	relative viability ([2]; first compound 6.325 µM)	relative viability ([2]; first compound 20 µM)	relative viability (TPCA-1 + Decitabine; first compound 0.04 µM)	relative viability (TPCA-1 + Decitabine; first compound 0.1265 µM)	relative viability (TPCA-1 + Decitabine; first compound 0.4 µM)	relative viability (TPCA-1 + Decitabine; first compound 1.265 µM)	relative viability (TPCA-1 + Decitabine; first compound 4 µM)	relative viability ([3]; first compound 0.005 µM)	relative viability ([3]; first compound 0.01581 µM)	relative viability ([3]; first compound 0.05 µM)	relative viability ([3]; first compound 0.1581 µM)	relative viability ([3]; first compound 0.5 µM)
NCI-H1755	1.01	0.897	1.03	0.853	0.928	0.867	0.896	0.822	0.704	0.831	0.649	0.709	0.709	0.688	0.67	0.41	0.42	0.453	0.211	0.204
NCI-H1993	1.07	0.946	1.36	0.915	1.19	0.897	0.9	0.784	0.63	0.743	0.604	0.541	0.541	0.584	0.508	0.692	0.442	0.831	0.523	0.569
NCI-H23	1.17	1.05	0.953	0.983	1.01	0.411	0.627	0.661	0.527	0.511	0.319	0.277	0.289	0.317	0.262	0.241	0.217	0.242	0.184	0.188
NCI-H1437	0.544	0.503	0.479	0.495	0.479	0.954	0.886	0.828	0.902	0.824	0.601	0.566	0.572	0.566	0.669	1.21	1.26	1.06	1.16	0.962
NCI-H2405	1.03	0.944	1.01	0.631	1	0.904	0.851	0.851	0.798	0.839	0.823	0.664	0.748	0.712	0.717	0.747	0.631	0.585	0.548	0.262
NCI-H2023	0.964	0.942	1.21	0.869	0.868	0.685	0.602	0.762	0.652	0.684	0.256	0.195	0.228	0.227	0.182	0.848	0.983	0.48	0.524	0.119
NCI-H838	0.864	0.787	0.912	0.655	0.782	0.896	0.889	0.807	0.784	0.858	0.466	0.442	0.532	0.44	0.44	0.321	0.321	0.284	0.227	0.197
NCI-H661	0.857	0.716	0.858	0.738	0.732	1.02	0.986	0.948	0.947	1.02	0.533	0.58	0.597	0.602	0.436	0.895	0.88	0.853	0.729	0.363
NCI-H1734	1.03	0.953	0.906	0.805	0.881	0.617	0.78	0.631	0.606	0.731	0.58	0.468	0.531	0.517	0.454	0.2	0.0895	0.185	0.159	0.155
NCI-H1650	0.221	0.231	0.327	0.202	0.186	1.16	1.02	1.14	0.605	0.923	0.424	0.42	0.433	0.382	0.397	0.183	0.195	0.188	0.164	0.18
NCI-H596	0.868	1.07	1.19	1.08		1.09	0.975	1.04	0.981	0.949	1.02	0.997	1.07	1.1	1.07	0.959	1.12	1.03	1.27	0.953
HCC-15	1.06	1.03	1.03	0.884	1.03	0.833	0.881	0.771	0.779	0.79	0.731	0.546	0.708	0.625	0.374	0.365	0.552	0.341	0.294	0.157
NCI-H727	0.783	0.947	1.04	0.698	0.815	0.885	0.779	0.755	0.745	0.762	0.946	0.787	0.943	0.788	0.576	0.478	0.401	0.427	0.284	0.387
HOP-62	0.619	0.765	0.94	0.979	0.634	0.985	1.07	1	0.712	0.804	0.261	0.198	0.215	0.198	0.214	0.9	1.07	0.855	0.913	0.274
NCI-H3122	1.04	1.02	0.997	1.03	0.932	0.247	0.273	0.279	0.215	0.272	0.424	0.404	0.424	0.496	0.455	0.114	0.116	0.115	0.0939	0.088
NCI-H647	0.877	1.09	1.11	0.627	0.912	1.2	1.1	1.12	0.992	1	0.475	0.433	0.385	0.4	0.346	0.153	0.115	0.12	0.0972	0.0647
